In brackets after ≈: the same amount, converted by molar mass. Like-named read-outs stand apart in the source and are kept apart here.

The test system of assay [1] is ASAU001 (laboratory strain of S. aureus, ATCC29213). The experiment in a line: MIC broth microdilution, ASAU001. It counts as cell-based. Particulars: Staphylococcus aureus, ATCC29213, read-out: MIC ASAU001. In outline: (§1)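 Incubation: 35° C., ambient air, 18-24 h. Medium: cation-adjusted Mueller-Hinton broth with 2-fold serial dilutions of drug. Inoculum: 3×10^5–7×10^5 CFU/mL final, per CLSI microdilution method.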

Assay [2] deals with APAE006 (strain of P. aeruginosa in which all efflux pumps are inactivated). The experiment in a line: microbe, parasite or virus in culture. The class given is cell-based. The conditions noted are these: Pseudomonas aeruginosa, read-out: MIC APAE006, APAE006, all efflux pumps inactivated. In outline:
(§2)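 (ambient air) in cation-adjusted MHB; inoculum from 0.5 McFarland suspensions, final 3×10^5–7×10^5 CFU/mL; 2-fold serial drug dilutions per CLSI. APAE006: P. aeruginosa with all efflux pumps inactivated.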

Assay [3] relates to APAE006 in the presence of 8 micrograms per milliliter of polymyxin B nonapeptide. The class given is cell-based, P. aeruginosa. Particulars: APAE006 with 8 micrograms per milliliter polymyxin B nonapeptide. The essentials:
as §2

The subject of assay [4] is AECO063 (ATCC25922 bearing an acrAB mutation). Kind of assay: microbe, parasite or virus in culture. The class given is cell-based, E. coli. The conditions noted are these: Escherichia coli, ATCC25922, read-out: MIC AECO063. In outline: as §1
The test system of assay [5] is AECO001 (ATCC25922). Kind of assay: MIC broth microdilution, AECO001. The conditions noted are these: for MIC: Escherichia coli. The class given is cell-based, E. coli. In outline: as §1
The subject of assay [6] is APAE001 (ATCC27853). The experiment in a line: MIC broth microdilution, APAE001. The conditions noted are these: Pseudomonas aeruginosa, ATCC27853, read-out: MIC APAE001, APAE001 (ATCC27853). It counts as cell-based, P. aeruginosa. The essentials: as §1
Assay [7] deals with AABA1060 (clinical isolate of Acinetobacter baumannii). The experiment in a line: MIC broth microdilution, AABA1060. It counts as cell-based. The conditions noted are these: Acinetobacter baumannii, read-out: MIC AABA1060. The essentials: as §1
[8] abbreviates: ATCC25922, read-out: MIC AECO001.
Setting [9] is: ATCC25922, read-out: MIC AECO001 HSA AGP.

With `CC(C)(N)[C@H](NC(=O)c1ccc(C#CC#CC2CCC2)cc1)C(=O)NO` [Example 91-16], the MIC in assay [1] is 2 to 16 µg/mL (≈ 5.66 to 45.3 µM); in assay [2], below 2 µg/mL; in assay [4], below 2 µg/mL; in assay [5] (setting [8]) it was below 2 µg/mL; in assay [5] (setting [9]) it was below 2 µg/mL; in assay [6], below 2 µg/mL. Besides, the MIC in assay [7] was below 2 µg/mL. Moreover, in assay [3], the “MIC APAE006 + PMBN” value is “A (MIC's of 2.0 μg/mL or less = A)”. Moreover, the “Ratio of MICs on AECO001 [Cpd (A = —CHCH3NH2)/Cpd (A = —C(CH3)2NH2)]” value in assay [5] (MIC of paired compound with A = —CHCH3NH2 divided by MIC of compound with A = —C(CH3)2NH2, n=2 data, pairs identical except for the A moiety) was 2.6.

Regarding `C[C@@H](O)[C@H](NC(=O)c1ccc(C#C/C=C/C2CC2)cc1)C(=O)NO` [Example 107-3], the MIC in assay [1] is 16 to 64 µg/mL (≈ 48.7 to 195 µM); in assay [2], below 2 µg/mL; in assay [4], below 2 µg/mL; in assay [5] (setting [8]), below 2 µg/mL; in assay [5] (setting [9]), 2 to 16 µg/mL (≈ 6.09 to 48.7 µM); in assay [6], below 2 µg/mL. Besides, in assay [7], the MIC is 2 to 16 µg/mL (≈ 6.09 to 48.7 µM). In addition, the “MIC APAE006 + PMBN” value in assay [3] is recorded as “A (MIC's of 2.0 μg/mL or less = A)”.

`CC(C)(N)[C@H](NC(=O)c1ccc(C#Cc2ccc(CNCC(F)F)cc2)cc1)C(=O)NO` [Example 122-3]: the MIC in assay [1] is 16 to 64 µg/mL (≈ 36 to 144 µM); in assay [2], below 2 µg/mL; in assay [4], below 2 µg/mL; in assay [5] (setting [8]) it was below 2 µg/mL; in assay [5] (setting [9]), below 2 µg/mL; in assay [6], below 2 µg/mL. Further, in assay [7], the MIC was below 2 µg/mL. The “MIC APAE006 + PMBN” value in assay [3] is reported as “A (MIC's of 2.0 μg/mL or less = A)”.

With `CC(C)(N)C(NC(=O)c1ccc(C#CC#Cc2ccncc2)cc1)C(=O)NO` (stereo not drawn) [Example 88-6], the MIC was 16 to 64 µg/mL (≈ 42.5 to 170 µM) in assay [1]; below 2 µg/mL in assay [2]; below 2 µg/mL in assay [4]; below 2 µg/mL in assay [5] (setting [8]); 2 to 16 µg/mL (≈ 5.31 to 42.5 µM) in assay [5] (setting [9]); 2 to 16 µg/mL (≈ 5.31 to 42.5 µM) in assay [6]. Further, the MIC in assay [7] lay in the range of 2 to 16 µg/mL (≈ 5.31 to 42.5 µM). In assay [3], the “MIC APAE006 + PMBN” value is given as “A (MIC's of 2.0 μg/mL or less = A)”.

On to `CCOCc1ccc(C#Cc2ccc(C(=O)NC(C(=O)NO)C(C)(C)N)cc2)cc1` (stereo not drawn) [Compound 126-2], for which the MIC in assay [1] is 16 to 64 µg/mL (≈ 39.1 to 156 µM); in assay [2], below 2 µg/mL; in assay [4] it was below 2 µg/mL; in assay [5] (setting [8]) it was below 2 µg/mL; in assay [5] (setting [9]) it was below 2 µg/mL; in assay [6], 2 to 16 µg/mL (≈ 4.88 to 39.1 µM). Further, the MIC in assay [7] was below 2 µg/mL. In addition, the “MIC APAE006 + PMBN” value in assay [3] is on record as “A (MIC's of 2.0 μg/mL or less = A)”.

Regarding `CC(C)(N)[C@H](NC(=O)c1ccc(C#CC2CC2c2ccccc2)cc1)C(=O)NO` (stereo partly drawn) [Example 134-1, N—((S)-2-Amino-1-hydroxycarbamoyl-2-methyl-propyl)-4-(2-phenyl-cyclopropylethynyl)-benzamide], the MIC was 16 to 64 µg/mL (≈ 40.9 to 163 µM) in assay [1]; below 2 µg/mL in assay [2]; below 2 µg/mL in assay [4]; 2 to 16 µg/mL (≈ 5.11 to 40.9 µM) in assay [5] (setting [8]); 2 to 16 µg/mL (≈ 5.11 to 40.9 µM) in assay [5] (setting [9]); 2 to 16 µg/mL (≈ 5.11 to 40.9 µM) in assay [6]. For the same compound, in assay [7], the MIC is below 2 µg/mL. Further, in assay [3], the “MIC APAE006 + PMBN” value is listed as “A (MIC's of 2.0 μg/mL or less = A)”.

With `C[C@@H](N)[C@H](NC(=O)c1ccc(C#CC#Cc2ccc(OC3CC3)cc2)cc1)C(=O)NO` [Example 84-1, N-((1S,2R)-2-Amino-1-hydroxycarbamoyl-propyl)-4-[4-(4-cyclopropoxy-phenyl)-buta-1,3-diynyl]-benzamide], the MIC in assay [1] was 16 to 64 µg/mL (≈ 38.3 to 153 µM); in assay [2] it was 2 to 16 µg/mL (≈ 4.79 to 38.3 µM); in assay [4], below 2 µg/mL; in assay [5] (setting [8]), below 2 µg/mL; in assay [5] (setting [9]), 2 to 16 µg/mL (≈ 4.79 to 38.3 µM); in assay [6], 16 to 64 µg/mL (≈ 38.3 to 153 µM). Moreover, the MIC in assay [7] fell in the range of 16 to 64 µg/mL (≈ 38.3 to 153 µM). The “MIC APAE006 + PMBN” value in assay [3] is given as “A (MIC's of 2.0 μg/mL or less = A)”.

The values above are taken from patent US9617256B2 (priority 2007, dated 2017).
